Test results: patent US3981903A, “Cyclopropane carboxylic acid esters” (Sumitomo Chemical Company, Limited, priority 1973, dated 1976)
Converted amounts (≈) assume the structure as drawn.

Key:
Format in all cases: in vivo
housefly adults = experiment: Test Example 3: pesticidal effects on housefly adults, Campbell's turn table, 0.2 % oil preparations; details: 0.2 % oil preparation, 5 ml, present compounds as dl-trans isomers; for mortality at 0.2 %: Musca domestica, 24 h, after a day
Procedure: dl-Trans isomers of the present compounds (1), (2), (3) and (4) were individually formulated by use of deodorized kerosene into 0.2 % oil preparations. As a control, pyrethrin was also formulated into a 0.2 % oil preparation.
Using the Campbell's turn table [Soap and Sanitary Chemicals; Vol. 14, No. 119 (1938)], 5 ml. of each of the above-mentioned oil preparations was sprayed. When 20 seconds had elapsed after the spraying, the shutter was opened, and a group of about 100 housefly adults were exposed to the settling mist for 10 minutes. Subsequently, the number of knocked down houseflies was counted to calculate the knock-down ratio. The houseflies were then transferred to another cage, fed and allowed to stand for a day at room temperature. Thereafter, the number of dead and alive houseflies was counted to calculate the mortality.

diamondback moths = experiment: Test Example 2: pesticidal effects on diamondback moth larvae, sprayed Chinese cabbage; details: for LC50: Plutella xylostella, 48 h, fourth instar larvae, after 2 days, from 20 % emulsifiable concentrates, read-out: LC50 (50 % lethal concentration); for Ratio of effect: relative to DDVP, defined as 1.0
Procedure: The present compounds (1), (2), (3) and (4) were individually formulated according to ordinary procedure into 20 % emulsifiable concentrates. As a control, DDVP was also formulated into a 20 % emulsifiable concentrate.
Each of the above-mentioned emulsifiable concentrates was diluted with water to a test concentration, and 10 ml. of the resulting dilution was sprayed to the potted Chinese cabbages at the stage of 3 to 4 leaves. Subsequently, the cabbage leaves were put in a glass Petri dish of 14 cm. in diameter and 7 cm. in height, and 10 diamondback moth larvae at the fourth instar stage were liberated into the dish. After 2 days, the number of dead and alive larvae was counted to calculate the value of LC50 (50 % lethal concentration).

green rice leafhoppers = experiment: Test Example 1: pesticidal effect on green rice leafhoppers, sprayed rice seedlings; details: for Mortality: 20 % emulsifiable concentrate diluted to 200 times, next day, 1440 min; for KT50 (50 % knock-down time): 20 % emulsifiable concentrate diluted with water to 200 times
Procedure: The present compounds (1), (2), (3), (4), (5) and (6) were individually formulated according to ordinary procedure into 20 % emulsifiable concentrates. As a standard compound, 3,4-dimethylphenyl-N-methyl carbamate [hereinafter referred to as "Meobal" (registered trademark of Sumitomo Chemical Co., Ltd.)] was also formulated into a 20 % emulsifiable concentrate.
In flower pots of 9 cm. in diameter, about 20 rice seedlings per pot were grown to the stage of 3 to 4 leaves. Each of the above-mentioned emulsifiable concentrates was diluted with water to 200 times, and sprayed to the seedlings by use of a turn table. After air-drying, the seedlings were put in a 5 liter glass beaker, which was then covered at the top with gauze. Thereafter, 20 green rice leafhoppers were liberated into the beaker, and the number of knocked down insects was counted with lapse of time to calculate the value of KT50 (50 % knock-down time). On the next day, the number of dead and alive insects was counted to calculate the mortality.

| Compound | Ratio of knocked down houseflies after 10 minutes (housefly adults) [%] | mortality at 0.2 % (housefly adults) [%] | LC50 (diamondback moths) [µg/mL] | Ratio of effect (diamondback moths) | Mortality (green rice leafhoppers) [%] | KT50 (50 % knock-down time) (green rice leafhoppers) [min] |
| --- | --- | --- | --- | --- | --- | --- |
| CC1(C)C(C=C(Cl)Cl)C1C(=O)OC/C=C(\Cl)Cc1ccccc1 (stereo not drawn) [(1), 3-Chloro-4-phenyl-trans-2-butene-1-yl 2',2'-dimethyl-3'-(2",2"-dichlorovinyl)-cyclopropanecarboxylate] | 100 | 100 | 43 (≈ 115 µM) | 8.6 | 100 | 19 |
| CC1(C)C(C=C(Cl)Cl)C1C(=O)OC/C=C(\Br)Cc1ccccc1 (stereo not drawn) [(2), 3-Bromo-4-phenyl-trans-2-butene-1-yl 2',2'-dimethyl-3'-(2",2"-dichlorovinyl)-cyclopropanecarboxylate] | 100 | 99 | 56 (≈ 134 µM) | 6.6 | 100 | 13 |
| CC1(C)C(C=C(Cl)Cl)C1C(=O)OC/C=C/Cc1ccccc1 (stereo not drawn) [(3), 4-Phenyl-trans-2-butene-1-yl 2',2'-dimethyl-3'-(2",2"-dichlorovinyl)-cyclopropanecarboxylate] | 100 | 100 | 48 (≈ 141 µM) | 7.7 | 100 | 11 |
| CC(=CCOC(=O)C1C(C=C(Cl)Cl)C1(C)C)Cc1ccccc1 (stereo not drawn) [(4), 3-Methyl-4-phenyl-2-butene-1-yl 2',2'-dimethyl-3'-(2",2"-dichlorovinyl)-cyclopropanecarboxylate] | 100 | 98 | 75 (≈ 212 µM) | 4.9 | 100 | 15 |
| CC1(C)C(C=C(Cl)Cl)C1C(=O)OCC=C(Cl)Cc1ccccc1 (stereo not drawn) [(5), 3-Chloro-4-phenyl-trans-2-butene-1-yl d-trans-2',2'-dimethyl-3' -(2",2"-dichlorovinyl)-cyclopropanecarboxylate] | – | – | – | – | 100 | 9 |
| CC1(C)C(C=C(Cl)Cl)C1C(=O)OC/C(Cl)=C(\Cl)Cc1ccccc1 (stereo not drawn) [(6), 2,3-Dichloro-4-phenyl-trans-2-butene-1-yl 2',2'-dimethyl-3'-(2",2"-dichlorovinyl)-cyclopropanecarboxylate] | – | – | – | – | 100 | 21 |
| COP(=O)(OC)OC=C(Cl)Cl [DDVP, 0,0-Dimethyl 0-2,2-dichlorovinyl phosphate, reference compound] | – | – | 370 | – | – | – |
| CNC(=O)Oc1ccc(C)c(C)c1 [Meobal, 3,4-dimethylphenyl-N-methyl carbamate, reference compound] | – | – | – | – | – | 24 |
